Reference: patent US12721835B2, “Anticoccidial composition comprising violacein, and use thereof” (CJ CHEILJEDANG CORPORATION, priority 2020, dated 2026)

What was measured:
Eimeria tenella [1] = assay: In vivo anticoccidial activity upon single inoculation (broilers, formulated feed); set-up: key to ACI: ACI out of 200 = survival% + RWG% − lesion×10 − oocyst index; conditions: Eimeria tenella infection; for Lesion score: appendix, scale 0-4, 8th day; for Oocyst excretion amount/g: feces day 6-8; for Lesion index: lesion score x 10; for ACI: out of 200 points; for Survival rate after challenge inoculation (%): up to 8th day; for RWG(%): vs non-infected negative control
Description: An in vivo anticoccidial efficacy evaluation test was performed in an animal experiment facility in Gyeongsangnam-do, South Korea. One-day-old female Ross broilers were individually weighed and randomly divided into groups to use in an experiment. Matters and conditions for experimental design were described in Table 2.
A breeding farm was managed according to the Korean poultry breeding management guidelines. Cages and the breeding farm were cleaned and disinfected before starting the test. The temperature of […] and the humidity of 40 to 50% of the breeding farm were maintained, and it was continuously monitored.
For the feed, Korea Feed Al-choi product was used, and each material (diclazuril (Yuhan Corporation YUHAN DICLA product), salinomycin (Cheil Bio Cheilsalino-60 product), violacein (CJ Cheiljedang)) was added to the feed, respectively, at a concentration described in Table 3 below to be self-mixed. Antibiotics and supplements were not used in general feed and mixed feed, and no anticoccidial agent other than each material was added. Broilers were fed ad libitum throughout the experiment period. After putting 15 1-day-age broilers in cages randomly placed for each of the control group or test group and breeding, general feed (Al-choi product) was fed for 7 days, and then the mixed feed prepared above was ingested by dividing by control group or test group. The non-infected negative control group used 1cage, and the infected negative control group and experimental group used 2cage to progress the experiment.
The feed formulation administered to the control group (negative control group or positive control group) and test group and whether coccidiosis was induced by Eimeria tenella were described in Table 3 below.
14-day-old broilers were orally inoculated with 10,000 oocysts (90% sporulated Eimeria tenella oocysts) per individual to induce coccidiosis.
The anticoccidial efficacy by test group designed in Example 1-2 above was shown as an anticoccidial index (ACI), and the anticoccidial index was calculated by Equation 2 below. The ACI score is out of 200 points, and the higher the ACI score, the more excellent the anticoccidial ability, and when it is 120 points or more to less than 140 points, it is determined that it is effective as an anticoccidial material, and when it is 140 points or more to less than 160 points, it is determined that it is excellent as an anticoccidial material, and when it is 160 points or more, it is determined that the anticoccidial effect is very excellent (Luis Miguel De Pablos et al., Anticoccidial activity of maslinic acid against infection with Eimeria tenella in chickens, Parasitol Res, 2010). Anticoccidial index (ACI)=(survival rate after challenge inoculation(%))+(daily weight gain compared to negative control group (RWG,%))−(lesion score×10)−(fecal oocyst excretion amount index) (Equation 2) • 1) Survival rate: the number of dead individuals was recorded daily, and post mortem autopsy was performed to determine a cause of mortality, and the number of individuals who died due to causes other than coccidiosis was excluded. The survival rate (%) up to the 8th day after challenge inoculation was used for anticoccidial index calculation. The measured survival rate was described in Table 4 below. • 2) Daily weight gain: body weight was measured for each cage before challenge inoculation with a protozoan into an individual and at the 7th day after challenge inoculation, and the difference was divided by the number of days to calculate the daily weight gain (ADG, g/d). ‘Daily weight gain compared to the negative control group (RWG, %)’ which was calculated by dividing the daily weight gain (ADG, average daily gain; g/d) of each experimental group by the weight gain (ADG, g/d) of the non-infected negative control group and multiplying by 100 was used for anticoccidial index calculation. […]

Eimeria tenella [2] = assay: Protozoan (sporozoite) direct killing effect; assay type: cell-based; conditions: tested 1 to 500 ppm, vs PBS control
Description: (§1) In the present example, protozoan (sporozoite) direct killing ability evaluation was conducted against 3 representative Eimeria kinds known to be infected in most farms (E. tenella, E. acervulina, E. maxima).
(§2) A certain amount of oocysts of each coccidial protozoan was put in a tube containing glass beads and pulverized, and then to remove the crushed oocyst cell wall and other debris, internal sporocysts were purified using the percoll density gradient, and washed with PBS solution. A reagent comprising sodium taurocholic acid (Sigma aldrich, USA) and trypsin (Gibco, USA), respectively, was treated to sporocysts of Eimeria tenella, Eimeria acervulina and Eimeria maxima for excystation of the internal sporozoites, and they were incubated, and then they were washed with PBS solution once and the protozoa were obtained.
(§3) After reacting the violacein and anticoccidial agents, salinomycin, diclazuril and gallic acid (hereinafter, material) with 3 kinds of Eimeria protozoa at various concentrations of 1 to 500 ppm, respectively, only alive protozoa (sporozoites) were counted through microscopic observation. […]

Eimeria maxima = assay: Protozoan (sporozoite) direct killing effect; assay type: cell-based; conditions: tested 1 to 500 ppm, vs PBS control
Description: as §1, §2, §3

Eimeria acervulina = assay: Protozoan (sporozoite) direct killing effect; assay type: cell-based; conditions: tested 1 to 500 ppm, vs PBS control
Description: as §1, §2, §3

[3] = tested on: Eimeria maxima (E. maxima) protozoa (sporozoites); assay: Acid resistance of violacein: protozoal death rate after acid exposure; assay type: cell-based
Description: In the present example, the acid resistance of the violacein was to be evaluated. […] Then, it was neutralized (pH 7.0) by adding sodium hydroxide (NaOH) solution, and 200,000 Eimeria maxima (E. maxima) protozoa (sporozoites) were exposed to the violacein at various concentrations of 0.1 to 100 ppm diluted using PBS solution, and they were reacted at a temperature of 41° C. for 4 hours. In Table 11, the control group means a violacein treatment group without treating the acidic condition, and the protozoa alone means a group to which violacein was not treated.

CC[C@@H](C(=O)[C@@H](C)[C@@H](O)[C@H](C)[C@@H]1O[C@@H]([C@@H](CC)C(=O)O)CC[C@@H]1C)[C@H]1O[C@]2(C=C[C@@H](O)[C@]3(CC[C@@](C)([C@H]4CC[C@](O)(CC)[C@H](C)O4)O3)O2)[C@H](C)C[C@@H]1C [Salinomycin, salinomycin, reference compound]
ADG(g/d) after challenge inoculation (Eimeria tenella [1]; feed 60 ppm): 56 g/day | Oocyst index (Eimeria tenella [1]; feed 60 ppm): 10 | Lesion score (Eimeria tenella [1]; feed 60 ppm): 2.6 | Oocyst excretion amount/g (Eimeria tenella [1]; feed 60 ppm): 1.3e+08 g⁻¹ | Lesion index (Eimeria tenella [1]; feed 60 ppm): 26 | ACI (Eimeria tenella [1]; feed 60 ppm): 139 | Survival rate after challenge inoculation (%) (Eimeria tenella [1]; feed 60 ppm): 87% | RWG(%) (Eimeria tenella [1]; feed 60 ppm): 88% | Minimum concentration for killing 50% protozoa (sporozoites) (ppm) (Eimeria tenella [2]): 500 ppm | Minimum concentration for killing 50% protozoa (sporozoites) (ppm) (Eimeria maxima): 500 ppm | Minimum concentration for killing 50% protozoa (sporozoites) (ppm) (Eimeria acervulina): 250 ppm

O=C1N=c2ccccc2=C1c1cc(-c2c[nH]c3ccc(O)cc23)[nH]c1O [Violacein, 3-(2-(5-Hydroxyindol-3-yl)-5-oxo-2-pyrrolin-4-ylidene)-2-indolinone]
ADG(g/d) after challenge inoculation (Eimeria tenella [1]; feed 10 ppm): 60 g/day | Oocyst index (Eimeria tenella [1]; feed 10 ppm): 10 | Lesion score (Eimeria tenella [1]; feed 10 ppm): 2.1 | Oocyst excretion amount/g (Eimeria tenella [1]; feed 10 ppm): 1.3e+08 g⁻¹ | Lesion index (Eimeria tenella [1]; feed 10 ppm): 21 | ACI (Eimeria tenella [1]; feed 10 ppm): 162 | Survival rate after challenge inoculation (%) (Eimeria tenella [1]; feed 10 ppm): 100% | RWG(%) (Eimeria tenella [1]; feed 10 ppm): 94% | ADG(g/d) after challenge inoculation (Eimeria tenella [1]; feed 40 ppm): 58 g/day | Oocyst index (Eimeria tenella [1]; feed 40 ppm): 10 | Lesion score (Eimeria tenella [1]; feed 40 ppm): 2.7 | Oocyst excretion amount/g (Eimeria tenella [1]; feed 40 ppm): 9e+07 g⁻¹ | Lesion index (Eimeria tenella [1]; feed 40 ppm): 27 | ACI (Eimeria tenella [1]; feed 40 ppm): 145 | Survival rate after challenge inoculation (%) (Eimeria tenella [1]; feed 40 ppm): 90% | RWG(%) (Eimeria tenella [1]; feed 40 ppm): 91% | Minimum concentration for killing 50% protozoa (sporozoites) (ppm) (Eimeria tenella [2]): 0.63 ppm | Minimum concentration for killing 50% protozoa (sporozoites) (ppm) (Eimeria maxima): 5 ppm | Minimum concentration for killing 50% protozoa (sporozoites) (ppm) (Eimeria acervulina): 3.9 ppm | Death rate according to violacein treatment condition ([3]; Control group (no acidic condition), 0.1 ppm): 64% | Death rate according to violacein treatment condition ([3]; Control group (no acidic condition), 1 ppm): 85% | Death rate according to violacein treatment condition ([3]; Control group (no acidic condition), 10 ppm): 100% | Death rate according to violacein treatment condition ([3]; Control group (no acidic condition), 100 ppm, 41° C. 4 hours): 100.00% | Acid resistance (killing efficacy after strong acidic condition) ([3]; acidic pH, 40° C., 1 hour, then neutralized): did not lose the killing efficacy | Death rate according to violacein treatment condition ([3]; pH 2, 1 h, 0.1 ppm): 64% | Death rate according to violacein treatment condition ([3]; pH 2, 1 h, 1 ppm): 84% | Death rate according to violacein treatment condition ([3]; pH 2, 1 h, 10 ppm): 99% | Death rate according to violacein treatment condition ([3]; pH 2, 1 h, 100 ppm): 100.00% | Death rate according to violacein treatment condition ([3]; pH 2.5, 1 h, 0.1 ppm): 61% | Death rate according to violacein treatment condition ([3]; pH 2.5, 1 h, 1 ppm): 83% | Death rate according to violacein treatment condition ([3]; pH 2.5, 1 h, 10 ppm): 99% | Death rate according to violacein treatment condition ([3]; pH 2.5, 1 h, 100 ppm): 100.00% | Death rate according to violacein treatment condition ([3]; pH 3, 1 h, 0.1 ppm): 63% | Death rate according to violacein treatment condition ([3]; pH 3, 1 h, 1 ppm): 86% | Death rate according to violacein treatment condition ([3]; pH 3, 1 h, 10 ppm): 99% | Death rate according to violacein treatment condition ([3]; pH 3, 1 h, 100 ppm): 100.00%
